Read-outs that look alike come from different tables or passages of the source.
Biological target: AChE (Homo sapiens, UniProt P22303)
Assay: In vitro AChE enzyme assay
Format: biochemical

Sequence of AChE (P22303 32-614): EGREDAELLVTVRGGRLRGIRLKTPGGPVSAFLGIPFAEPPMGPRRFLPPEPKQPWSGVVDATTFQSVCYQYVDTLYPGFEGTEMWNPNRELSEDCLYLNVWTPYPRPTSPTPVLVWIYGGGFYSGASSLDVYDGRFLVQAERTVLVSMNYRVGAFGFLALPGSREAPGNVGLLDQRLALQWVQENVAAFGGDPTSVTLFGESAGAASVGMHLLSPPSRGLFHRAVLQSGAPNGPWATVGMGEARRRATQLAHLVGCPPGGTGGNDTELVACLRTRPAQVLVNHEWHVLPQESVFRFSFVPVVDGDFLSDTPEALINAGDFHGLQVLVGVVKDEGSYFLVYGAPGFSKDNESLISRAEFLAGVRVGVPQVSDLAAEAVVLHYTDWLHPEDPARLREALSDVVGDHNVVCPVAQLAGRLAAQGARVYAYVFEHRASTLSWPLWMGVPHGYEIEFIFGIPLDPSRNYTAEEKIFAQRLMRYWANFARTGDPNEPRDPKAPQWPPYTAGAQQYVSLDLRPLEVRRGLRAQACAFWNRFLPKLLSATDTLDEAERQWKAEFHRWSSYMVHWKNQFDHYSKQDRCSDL

Row | Structure (SMILES) | IC50 (Ellman method, ACTI substrate, mean ± SD, triplicate) | IC50
1 | COC(F)(F)C(F)(F)C(F)(F)C(F)(F)F [CHEMBL500823, methyl nonafluorobutyl ether] | 52.6 ± 4.14 µM | –
2 | FC(F)(F)C(F)(F)C(F)(F)C(F)(F)C(F)(F)C(F)(F)F [CHEMBL1200607, perflexane] | – | 50.7 ± 3.73 µM
3 | CC(=O)C=Cc1ccc(C(F)(F)F)cc1 [CHEMBL74630, 1-[4-(trifluoromethyl)phenyl]but-1-en-3-one] | – | 26.3 ± 2.18 µM
4 | O=C(c1ccccc1)C(F)(F)F [CHEMBL293277, trifluoroacetophenone] | – | 4.61 ± 0.34 µM
5 | Cc1cccc(C(=O)C(F)(F)F)c1 [CHEMBL86868, 3′-methyl-2,2,2-trifluoroacetophenone, reference compound] | – | 0.35 ± 0.03 µM
